# Results taken from patent US7098340B2, “Benzyl sulfonamide derivatives” (Warner Lambert Company LLC, priority 2003, dated 2006).
# Molecular target: T1, androgen receptor (Homo sapiens, UniProt P10275)
# T1 sequence (P10275 1-920 Q868H): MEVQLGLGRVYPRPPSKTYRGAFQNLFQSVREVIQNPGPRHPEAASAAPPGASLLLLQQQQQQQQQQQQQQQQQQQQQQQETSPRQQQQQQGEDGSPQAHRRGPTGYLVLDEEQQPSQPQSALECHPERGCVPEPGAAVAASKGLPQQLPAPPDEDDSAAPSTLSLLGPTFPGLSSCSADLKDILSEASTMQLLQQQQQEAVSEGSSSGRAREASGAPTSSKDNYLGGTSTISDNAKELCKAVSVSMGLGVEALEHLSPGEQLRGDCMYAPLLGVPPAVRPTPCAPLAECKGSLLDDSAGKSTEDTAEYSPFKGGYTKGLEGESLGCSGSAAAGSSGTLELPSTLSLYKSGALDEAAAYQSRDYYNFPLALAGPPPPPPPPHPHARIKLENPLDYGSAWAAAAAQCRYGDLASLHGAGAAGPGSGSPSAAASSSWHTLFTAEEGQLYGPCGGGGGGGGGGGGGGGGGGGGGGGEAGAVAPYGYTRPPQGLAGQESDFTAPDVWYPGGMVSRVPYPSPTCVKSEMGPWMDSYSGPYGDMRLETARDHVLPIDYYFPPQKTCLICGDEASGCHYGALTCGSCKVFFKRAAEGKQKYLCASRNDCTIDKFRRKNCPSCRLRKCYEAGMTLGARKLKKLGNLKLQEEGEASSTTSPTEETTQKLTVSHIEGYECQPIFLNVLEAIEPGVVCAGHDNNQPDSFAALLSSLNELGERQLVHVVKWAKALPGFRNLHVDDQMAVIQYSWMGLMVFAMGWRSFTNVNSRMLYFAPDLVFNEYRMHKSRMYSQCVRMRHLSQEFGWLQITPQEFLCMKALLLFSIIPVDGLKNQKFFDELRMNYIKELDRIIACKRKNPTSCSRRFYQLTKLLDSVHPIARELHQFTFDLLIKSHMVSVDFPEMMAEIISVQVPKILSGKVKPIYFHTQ
# Assay: AR Antagonist Cell Assay (MMTV-luciferase reporter, DHT-stimulated)
# Assay type: cell-based
# Conditions: MDA-MB453-MMTV clone 54-19 cells; antagonism of 100 pM DHT, 17 hr, luciferase readout
# Summary of the method: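 MDA-MB453 cells stably carrying MMTV-ARE-firefly luciferase, in 1% charcoal-treated serum, preincubated 30 min with compound (10 uM or 1 uM) then stimulated with 100 pM DHT for 17 h at 37° C. Luminescence read; result as % inhibition of DHT fold induction.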
row,IC50,SMILES
1,1.21 µM,"Cc1ccc(NS(=O)(=O)c2ccc(Cc3ccc4oc(=O)cc(C(F)(F)F)c4c3)cc2)cc1 [Example 116, 4-(2-Oxo-4-trifluoromethyl-2H-chromen-6-ylmethyl)-N-p-tolylbenzenesulfonamide]"
2,3.46 µM,"O=c1cc(C(F)(F)F)c2cc(Cc3ccc(S(=O)(=O)Nc4ccc(F)cc4)cc3)ccc2o1 [Example 117, N-(4-Fluorophenyl)-4-(2-oxo-4-trifluoromethyl-2H-chromen-6-ylmethyl)benzenesulfonamide]"
3,5.47 µM,"C#Cc1ccc(NS(=O)(=O)c2ccc(Cc3ccc4oc(=O)cc(C(F)(F)F)c4c3)cc2)cc1 [Example 118, N-(4-Ethynylphenyl)-4-(2-oxo-4-trifluoromethyl-2H-chromen-6-ylmethyl)-benzenesulfonamide]"
4,3.42 µM,"CCc1cccc(NS(=O)(=O)c2ccc(Cc3ccc4oc(=O)cc(C(F)(F)F)c4c3)cc2)c1 [Example 119, N-(3-Ethylphenyl)-4-(2-oxo-4-trifluoromethyl-2H-chromen-6-ylmethyl)-benzenesulfonamide]"
5,1.32 µM,"CCc1ccc(NS(=O)(=O)c2ccc(Cc3ccc4oc(=O)cc(C(F)(F)F)c4c3)cc2)cc1 [Example 120, N-(4-Ethylphenyl)-4-(2-oxo-4-trifluoromethyl-2H-chromen-6-ylmethyl)-benzenesulfonamide]"
6,1.83 µM,"O=c1cc(C(F)(F)F)c2cc(Cc3ccc(S(=O)(=O)Nc4cccc(CO)c4)cc3)ccc2o1 [Example 122, N-(3-Hydroxymethylphenyl)-4-(2-oxo-4-trifluoromethyl-2H-chromen-6-ylmethyl)-benzenesulfonamide]"
7,2.31 µM,"O=c1cc(C(F)(F)F)c2cc(Cc3ccc(S(=O)(=O)Nc4ccc(CO)cc4)cc3)ccc2o1 [Example 124, N-(4-Hydroxymethylphenyl)-4-(2-oxo-4-trifluoromethyl-2H-chromen-6-ylmethyl)-benzenesulfonamide]"
8,> 10 µM,"O=c1cc(C(F)(F)F)c2cc(Cc3ccc(S(=O)(=O)Nc4ccc5ncccc5c4)cc3)ccc2o1 [Example 125, 4-(2-Oxo-4-trifluoromethyl-2H-chromen-6-ylmethyl)-N-quinolin-6-ylbenzenesulfonamide]"
9,1.89 µM,"N#CCc1ccc(NS(=O)(=O)c2ccc(Cc3ccc4oc(=O)cc(C(F)(F)F)c4c3)cc2)cc1 [Example 126, N-(4-Cyanomethylphenyl)-4-(2-oxo-4-trifluoromethyl-2H-chromen-6-ylmethyl)-benzenesulfonamide]"
10,2.16 µM,"CC(=O)c1cccc(NS(=O)(=O)c2ccc(Cc3ccc4oc(=O)cc(C(F)(F)F)c4c3)cc2)c1 [Example 129, N-(3-Acetylphenyl)-4-(2-oxo-4-trifluoromethyl-2H-chromen-6-ylmethyl)benzenesuifonamide]"
11,3.91 µM,"CC(C)c1ccc(NS(=O)(=O)c2ccc(Cc3ccc4oc(=O)cc(C(F)(F)F)c4c3)cc2)cc1 [Example 130, N-(4-Isopropylphenyl)-4-(2-oxo-4-trifluoromethyl-2H-chromen-6-ylmethyl)-benzenesulfonamide]"
12,6.91 µM,"CC(O)c1cccc(NS(=O)(=O)c2ccc(Cc3ccc4oc(=O)cc(C(F)(F)F)c4c3)cc2)c1 (centres unmarked) [Example 133, N-[3-(1-Hydroxyethyl)phenyl]-4-(2-oxo-4-trifluoromethyl-2H-chromen-6-ylmethyl)-benzenesulfonamide]"
13,1.24 µM,"CSc1cccc(NS(=O)(=O)c2ccc(Cc3ccc4oc(=O)cc(C(F)(F)F)c4c3)cc2)c1 [Example 134, N-(3-Methylsulfanylphenyl)-4-(2-oxo-4-trifluoromethyl-2H-chromen-6-ylmethyl)-benzenesulfonamide]"
14,2.01 µM,"O=c1cc(C(F)(F)F)c2cc(Cc3ccc(S(=O)(=O)Nc4ccc(Cl)cc4)cc3)ccc2o1 [Example 135, N-(4-Chlorophenyl)-4-(2-oxo-4-trifluoromethyl-2H-chromen-6-ylmethyl)benzenesulfonamide]"
15,2.03 µM,"Cc1ccc2cc(NS(=O)(=O)c3ccc(Cc4ccc5oc(=O)cc(C(F)(F)F)c5c4)cc3)ccc2n1 [Example 139, N-(2-Methylquinolin-6-yl)-4-(2-oxo-4-trifluoromethyl-2H-chromen-6-ylmethyl)-benzenesulfonamide]"

# Second part, the compound before the results:
row,SMILES,IC50
1,"O=c1cc(C(F)(F)F)c2cc(Cc3ccc(S(=O)(=O)Nc4ccccc4CO)cc3)ccc2o1 [Example 121, N-(2-Hydroxymethylphenyl)-4-(2-oxo-4-trifluoromethyl-2H-chromen-6-ylmethyl)-benzenesulfonamide]",3.17 µM
2,"COc1ccccc1NS(=O)(=O)c1ccc(Cc2ccc3oc(=O)cc(C(F)(F)F)c3c2)cc1 [Example 123, N-(2-Methoxyphenyl)-4-(2-oxo-4-trifluoromethyl-2H-chromen-6-ylmethyl)-benzenesulfonamide]",4.08 µM
3,"O=c1cc(C(F)(F)F)c2cc(Cc3ccc(S(=O)(=O)Nc4ccc5c(c4)CCC5)cc3)ccc2o1 [Example 127, N-Indan-5-yl-4-(2-oxo-4-trifluoromethyl-2H-chromen-6-ylmethyl)benzenesulfonamide]",2.77 µM
4,"O=c1cc(C(F)(F)F)c2cc(Cc3ccc(S(=O)(=O)Nc4cccc5c4CCC5)cc3)ccc2o1 [Example 128, N-Indan-4-yl-4-(2-oxo-4-trifluoromethyl-2H-chromen-6-ylmethyl)benzenesulfonamide]",4.77 µM
5,"O=c1cc(C(F)(F)F)c2cc(Cc3ccc(S(=O)(=O)Nc4ccc5c(c4)OCO5)cc3)ccc2o1 [Example 131, N-Benzo[1,3]dioxol-5-yl-4-(2-oxo-4-trifluoromethyl-2H-chromen-6-ylmethyl)-benzenesulfonamide]",2.4 µM
6,"Cc1ccc(-c2ccccc2)cc1NS(=O)(=O)c1ccc(Cc2ccc3oc(=O)cc(C(F)(F)F)c3c2)cc1 [Example 132, N-(4-Methylbiphenyl-3-yl)-4-(2-oxo-4-trifluoromethyl-2H-chromen-6-ylmethyl)-benzenesulfonamide]",8.13 µM
7,"O=c1cc(C(F)(F)F)c2cc(Cc3ccc(S(=O)(=O)Nc4cc5ccccc5cn4)cc3)ccc2o1 [Example 136, N-Isoquinolin-3-yl-4-(2-oxo-4-trifluoromethyl-2H-chromen-6-ylmethyl)benzenesulfonamide]",> 10 µM
8,"O=c1cc(C(F)(F)F)c2cc(Cc3ccc(S(=O)(=O)Nc4cccc5cccnc45)cc3)ccc2o1 [Example 137, 4-(2-Oxo-4-trifluoromethyl-2H-chromen-6-ylmethyl)-N-quinolin-8-ylbenzenesulfonamide]",7.08 µM
9,"CSc1n[nH]c(NS(=O)(=O)c2ccc(Cc3ccc4oc(=O)cc(C(F)(F)F)c4c3)cc2)c1C#N [Example 138, N-(4-Cyano-5-methylsulfanyl-2H-pyrazol-3-yl)-4-(2-oxo-4-trifluoromethyl-2H-chromen-6-ylmethyl)benzenesulfonamide]",1.9 µM
10,"COc1ccc(OC)c(NS(=O)(=O)c2ccc(Cc3ccc4oc(=O)cc(C(F)(F)F)c4c3)cc2)c1 [Example 140, N-(2,5-Dimethoxyphenyl)-4-(2-oxo-4-trifluoromethyl-2H-chromen-6-ylmethyl)-benzenesulfonamide]",7.3 µM
11,"COc1cc(NS(=O)(=O)c2ccc(Cc3ccc4oc(=O)cc(C(F)(F)F)c4c3)cc2)cc(OC)c1 [Example 141, N-(3,5-Dimethoxyphenyl)-4-(2-oxo-4-trifluoromethyl-2H-chromen-6-ylmethyl)-benzenesulfonamide]",3.24 µM
